Assay [1] concerns C. albicans E81022 strain. Description: Anti-Candida activity (MIC measurement). Format: cell-based. The note with it: E81022STRAIN, MIC by visual inspection, C. albicans E81022, 48 hours at 30 to 35° C. The method, then:
(§1) For the C. albicans E81022 strain, a fungal suspension from a standing culture for 48 hours at 30° C. in a Sabouraud dextrose liquid culture medium (SDB) was diluted 10,000-fold with a 1.3-fold concentrated SDB to adjust to a fungal suspension of 1 to 2×10^4 cells/ml. For the A. fumigatus Tsukuba strain, −80° C. stored strain was diluted 1,000-fold with a 1.3-fold concentrated SDB to adjust to a fungal suspension of 2 to 3×10^3 cells/ml.
(§2) Using a U-bottomed 96 well plate, 8 samples/plate (A to H) of sample dilution solutions were prepared. On the 3rd row of each plate was dispensed 240 μl of sterilized and distilled water, and on the 2nd and 4th to 12th rows were dispensed 125 μl of 4% dimethylsulfoxide solution. Weighed sample was dissolved in dimethylsulfoxide to prepare a 2.5 to 20 mg/ml solution, 10 μl of this solution was then added to the 3rd row of the prepared plate, and 10 steps of two-fold step dilutions (125 μl of solution+125 μl of 4% dimethylsulfoxide) were performed on the plate.
(§3) The fungal suspension preprared in (1) was used in the amount of 75 μl/well to inoculate a V-bottomed or flat-bottomed 96 well plate containing 25 μl/well of test compound dilution solution prepared in (2), and a standing culture was carried out aerobically for 48 hours at 30 to 35° C.

In assay [2] the test system is A. fumigatus Tsukuba strain. Description: Anti-Aspergillus activity (MIC measurement). The note with it: MIC by visual inspection, 48 hours at 30 to 35° C. Format: cell-based. Here is the method:
as §1, §2, §3

Assay [3] deals with C. albicans E81022 strain. Description: Experimental systemic candida infection model in mice. It counts as in vivo, female ICR mice. The note with it: C. albicans i.v. infection, 2.5 mg/kg peroral 3 times every 4 hours, observed until 14 days after infection. The method, then:
A standing culture of C. albicans E81022 strain was carried out for 48 hours at 30° C. in Sabouraud dextrose agar medium (SDA), the recovered fungal cells were suspended in sterilized physiological saline. By counting the fungal number on a cytometry plate, the suspension was diluted to 2×10^7 cells/ml with sterilized physiological saline to serve as fungal inoculum.
The fungal inoculum was used in the amounts of 0.2 ml to inoculate 4.5 to 5.5 week-old female ICR mice in the tail vein (4×10^6 cells/mouse).
From 0.5 to 1 hour after fungal inoculation, 0.2 ml of agent solution (dissolved or suspended in sterilized physiological saline containing 6.5% dimethylsulfoxide and 3.5% Tween 80) was administered into the stomach using a peroral probe, 3 times every 4 hours. The agent concentration was 2.5 mg/kg, and the number of animals in one group was 5 animals.
(§4) The protective effect was determined by observing life/death until 14 days after infection and calculating the mean survival days.

For assay [4], the system named is A. fumigatus Tsukuba strain. Description: Experimental respiratory aspergillus infection model in mice. Format: in vivo, female DBA/2N mice. The note with it: 5-fluorouracil-treated mice, A. fumigatus nasal infection, 20 or 40 mg/kg peroral 3 times per day for 3 days, observed until 14 days after infection. Here is the method:
In order to increase susceptibility of the mice to infection, 200 mg/kg of 5-fluorouracil was administered subcutaneously 6 days prior to infection.
A. fumigatus Tsukuba strain was used.
A spore suspension of the infection strain was used to coat a potato dextrose agar medium (PDA), a standing culture was carried out for 4 to 7 days at 35° C., spore was then suspended in a sterilized physiological saline containing 0.05% Tween 80. By counting the pore count on a cytometry plate, the suspension was diluted to 6×10^5 cells/ml with sterilized physiological saline containing 0.05% Tween 80 to serve as fungal inoculum.
Under ketalar anesthesia, 50 μl of fungal inoculum was used to inoculate 8 to 9 week-old female DBA/2N mice in the nose (3×10^4 cells/mouse).
From 1 hour after fungal inoculation, 0.2 ml of agent solution (dissolved or suspended in sterilized physiological saline containing 6.5% DMSO and 3.5% Tween 80), was administered into the stomach using a peroral probe 3 times per day for 3 days. The agent dosage was from 20 or 40 mg/kg, and the number of animals in one group was 5 animals.
as §4

In brackets after ≈: the same amount, converted by molar mass.

In the case of `Nc1ccc(C(=O)NCc2ccc(OCc3ccccc3)cc2)c(N)n1` [Example A-10, 2,6-Diamino-N-(4-benzyloxy-benzyl)-nicotinamide], the MIC in assay [1] is 0.78 µg/mL (≈ 2.24 µM); in assay [2], 1.56 µg/mL (≈ 4.48 µM). Moreover, the “Mean Survival Days” value in assay [3] is 12.5 days.
Consider `Nc1ccc(C(=O)NCc2ccc(OCc3ccccc3F)cc2)c(N)n1` [Example A-11, 2,6-Diamino-N-(4-(2-fluoro-benzyloxy)-benzyl)-nicotinamide], for which the “Mean Survival Days” value in assay [4] was 10.4 days.
Turning to `COCc1ccc(C(=O)NCc2ccc(OCc3ccccn3)cc2)c(N)n1` [Example A-31, 2-Amino-6-methoxymethyl-N-(4-(pyridin-2-ylmethoxy)-benzyl)-nicotinamide], the “Mean Survival Days” value in assay [4] stood at 11.2 days.
Turning to `COCc1ccc(C(=O)NCc2ccc(OCc3ccc(F)cc3)cc2)c(N)n1` [Example A-32, 2-Amino-N-(4-(4-fluoro-benzyloxy)-benzyl)-6-methoxymethyl-nicotinamide], the “Mean Survival Days” value in assay [4] amounted to 11.8 days.
For `Nc1ccc(C(=O)NCc2ccc(Oc3ccc(F)cc3)s2)c(N)n1` [Example A-53, 2,6-Diamino-N-(5-(4-fluoro-phenoxy)-thiophen-2-ylmethyl)-nicotinamide], the results for the MIC in assay [1] and in assay [2] were 0.39 µg/mL (≈ 1.09 µM) and 0.78 µg/mL (≈ 2.18 µM), respectively. For the same molecule, the “Mean Survival Days” value in assay [3] was 13.4 days.
Taken in the same sequence, the figures for `Nc1ccc(C(=O)NCc2ccc(Oc3ccccc3)s2)c(N)n1` [Example A-54, 2,6-diamino-N-(5-phenoxy-thiophene-2-ylmethyl)-nicotinamide] were 0.78 µg/mL (≈ 2.29 µM), 1.56 µg/mL (≈ 4.58 µM) and 10.0 days.
As to `Nc1ccc(C(=O)NCc2ccc(Cc3ccccc3)s2)c(N)n1` [Example A-55, 2,6-Diamino-N-(5-benzyl-thiophen-2-ylmethyl)-nicotinamide], the “Mean Survival Days” value in assay [4] amounted to 12.6 days.
In the case of `Nc1ccc(C(=O)NCc2ccc(OCc3ccccc3)s2)c(N)n1` [Example A-56, 2,6-Diamino-N-(5-benzyloxy-thiophen-2-ylmethyl)-nicotinamide], in assay [4], the “Mean Survival Days” value worked out at 10.8 days.
On to `Nc1ncccc1C(=O)NCc1ccc(Oc2cccc(F)c2)s1` [Example A-68, 2-Amino-N-(5-(3-fluoro-phenoxy)-thiophen-2-ylmethyl)-nicotinamide], for which the MIC came to 0.05 µg/mL (≈ 0.146 µM) in assay [1] and 0.78 µg/mL (≈ 2.27 µM) in assay [2]. In addition, in assay [3], the “Mean Survival Days” value was determined as 10.6 days.
Taken in the same sequence, the figures for `Nc1ncccc1C(=O)NCc1ccc(Cc2ccccc2)s1` [Example A-70, 2-Amino-N-(5-benzyl-thiophen-2-ylmethyl)-nicotinamide] were 0.05 µg/mL (≈ 0.155 µM), 0.78 µg/mL (≈ 2.41 µM) and 12.6 days.
As to `Nc1ccc(C(=O)NCc2ccc(Oc3cccc(F)c3)s2)cn1` [Example A-137, 6-Amino-N-(5-(3-fluorophenoxy)thiophen-2-ylmethyl)nicotinamide], the MIC in assay [1] was 1.56 µg/mL (≈ 4.54 µM). The “Mean Survival Days” value in assay [3] was 12.8 days.
Turning to `O=C(NCc1ccn(Cc2cccc(F)c2)c1)c1ccc2ncccc2n1` [Example D-4, [1,5]Naphthylidine-2-carboxylic acid (1-(3-fluoro-benzyl)-1H-pyrrol-3-ylmethyl)-amide], in assay [4], the “Mean Survival Days” value worked out at 10.8 days.
As for `O=C(NCc1ccc(Oc2cccc(F)c2)s1)c1ccc2ncccc2c1` [Example E-65, Quinoline-6-carboxylic acid (5-(3-fluorophenoxy)thiophen-2-ylmethyl) amide], the minimal inhibitory concentration (MIC) in assay [1] came to 0.1 µg/mL (≈ 0.264 µM); in assay [2], 1.56 µg/mL (≈ 4.12 µM). For the same molecule, in assay [3], the “Mean Survival Days” value turned out to be 11.6 days.
For `O=C(NCc1ccc(Oc2ccc(F)cc2)s1)c1ccc2ncccc2c1` [Example E-67, Quinoline-6-carboxylic acid (5-(4-fluorophenoxy)thiophen-2-yl)methyl amide], the MIC in assay [1] turned out to be 0.39 µg/mL (≈ 1.03 µM); in assay [2] it was 0.78 µg/mL (≈ 2.06 µM).
Taken in the same sequence, the figures for `O=C(NCc1cc(Oc2cccc(F)c2)cs1)c1ccc2ncccc2c1` [Example E-69, Quinoline-6-carboxylic acid (4-(3-fluoro-phenoxy)-thiophen-2-ylmethyl)-amide] were 0.1 µg/mL (≈ 0.264 µM) and 1.56 µg/mL (≈ 4.12 µM).
For the molecule `O=C(NCc1ccc(Cc2cccc(Cl)c2)s1)c1ccc2ncccc2c1` [Example E-71, Quinoline-6-carboxylic acid (5-(3-chlorobenzyl)-thiophen-2-ylmethyl)-amide], the MIC was 0.2 µg/mL (≈ 0.509 µM) in assay [1] and 1.56 µg/mL (≈ 3.97 µM) in assay [2].
Taken in the same sequence, the figures for `Cc1ccc(Cc2ccc(CNC(=O)c3ccc4ncccc4c3)s2)s1` [Example E-73, Quinoline-6-carboxylic acid (5-(5-methyl-thiophen-2-ylmethyl)-thiophen-2-ylmethyl)-amide] were 0.2 µg/mL (≈ 0.528 µM) and 0.78 µg/mL (≈ 2.06 µM).
For `O=C(NCc1cccc(Oc2ccccc2)c1)c1ccc2nccnc2c1` [Example I-1, Quinoxaline-6-carboxylic acid 3-phenoxybenzylamide], the MIC in assay [1] came out at 0.78 µg/mL (≈ 2.19 µM); in assay [2], 1.56 µg/mL (≈ 4.39 µM).
On to `Cc1nc2ccc(C(=O)NCc3cccc(Oc4ccccc4)c3)cc2o1` [Example K-1, 2-Methyl-benzoxazole-6-carboxylic acid 3-phenoxybenzylamide], for which the MIC is 0.78 µg/mL (≈ 2.18 µM) in assay [1] and 1.56 µg/mL (≈ 4.35 µM) in assay [2].
In the case of `O=C(NCc1ccc(OCc2cccc(F)c2)cc1)c1ccc2ncsc2c1` [Example L-4, Benzothiazole-6-carboxylic acid 4-(3-fluoro-benzyloxy)-benzylamide], the MIC in assay [1] and in assay [2] was 0.2 µg/mL (≈ 0.51 µM) throughout.
`O=C(NCc1ccc(Oc2ccccc2)s1)c1ccc2ncsc2c1` [Example L-7, Benzothiazole-6-carboxylic acid (5-phenoxythiophen-2-ylmethyl)-amide]: the MIC in assay [1] was determined as 0.1 µg/mL (≈ 0.273 µM); in assay [2], 0.78 µg/mL (≈ 2.13 µM).
As for `O=C(NCc1cccc(Oc2ccccc2)c1)c1ccc2nsnc2c1` [Example M-1, Benzo[1,2 5]thiadiazole-5-carboxylic acid 3-phenoxybenzylamide], the MIC in assay [1] and in assay [2] was 1.56 µg/mL (≈ 4.32 µM) throughout.
`O=C(NCc1ccc(Oc2ccccc2)s1)c1ccc2nccn2c1` [Example Q-7, Imidazo[1,2-a]pyridine-6-carboxylic acid (5-phenoxy-thiophen-2-ylmethyl)-amide]: the values for the MIC in assay [1] and in assay [2] were 0.39 µg/mL (≈ 1.12 µM) and 6.25 µg/mL (≈ 17.9 µM), respectively.
With `O=C(NCc1ccc(Oc2ccccc2)s1)c1cnc2[nH]ccc2c1` [Example R-1, 1H-Pyrrolo[2,3-b]pyridine-5-carboxylic acid (5-phenoxy-thiophen-2-ylmethyl)-amide], the MIC in assay [1] came to 0.39 µg/mL (≈ 1.12 µM); in assay [2], 3.13 µg/mL (≈ 8.96 µM). Further, the “Mean Survival Days” value in assay [3] was found to be 10.4 days.
In the case of `O=C(NCc1ccc(Oc2ccccc2)s1)c1cnc2ccsc2c1` [Example U-2, Thieno[3,2-b]pyridine-6-carboxylic acid (5-phenoxy-thiophen-2-yl methyl)-amide], the minimal inhibitory concentration (MIC) in assay [1] was found to be 0.78 µg/mL (≈ 2.13 µM); in assay [2], 3.13 µg/mL (≈ 8.54 µM).
Taken in the same sequence, the figures for `c1ccc(COc2ccc(NCc3ccc4ncccc4c3)cc2)cc1` [Example W-1, (4-Benzyloxy-phenyl)-quinolin-6-ylmethyl-amine] were 0.39 µg/mL (≈ 1.15 µM) and 0.78 µg/mL (≈ 2.29 µM).
Taken in the same sequence, the figures for `c1ccc(COc2ccc(CNc3ccc4ncccc4c3)cc2)cc1` [Example W-2, (4-Benzyloxy-benzyl)-quinolin-6-yl-amine] were 1.56 µg/mL (≈ 4.58 µM) and 0.78 µg/mL (≈ 2.29 µM).
Taken in the same sequence, the figures for `Nc1nc(NCc2ccc(OCc3ccccc3)cc2)c2cccnc2n1` [Example Y-1, N*4*-(4-Benzyloxy-benzyl)-pyrido[2,3-d]pyrimidine-2,4-diamine] were 0.78 µg/mL (≈ 2.18 µM) and 6.25 µg/mL (≈ 17.5 µM).

In general, MIC refers to the least concentration at which growth counts as inhibited. High values mean weaker potency, low ones greater potency.

The values above are taken from patent US7932272B2, “Antifungal agent containing heterocyclic compound” (Eisai R&D Management Co., Ltd., priority 2003, dated 2011).
